ChEMBL document CHEMBL1201862, “PubChem BioAssay data set” (2004)
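A five-concentration, 48-hour dose response in 96-well plates underlies each endpoint, interpolated linearly between surrounding concentrations. The concentration for 50% growth inhibition is given as GI50.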 Calls of active or inactive are those of the source. No stated cut-off is given here; in the data, active = GI50 up to about 1.1 µM and inactive = higher.

What was measured:
Experiment in all cases: growth of human tumour cells (NCI), 48 h
HCT-116 = system: HCT-116
RXF 393 = system: RXF 393
NCI-H522 = system: NCI-H522
NCI-H23 = system: NCI-H23
ACHN = system: ACHN
NCI/ADR-RES = system: NCI/ADR-RES
SW-620 = system: SW-620
BT-549 = system: BT-549
COLO 205 = system: COLO 205
NCI-H460 = system: NCI-H460
UACC-62 = system: UACC-62
SF-295 = system: SF-295
HOP-92 = system: HOP-92
PC-3 = system: PC-3
HOP-62 = system: HOP-62
786-0 = system: 786-0
HT-29 = system: HT-29
HCT-15 = system: HCT-15
UACC-257 = system: UACC-257
HCC 2998 = system: HCC 2998
CCRF-CEM = system: CCRF-CEM
MDA-MB-231 = system: MDA-MB-231
NCI-H226 = system: NCI-H226
MOLT-4 = system: MOLT-4
OVCAR-3 = system: OVCAR-3
MCF7 = system: MCF7
IGROV-1 = system: IGROV-1
Hs-578T = system: Hs-578T
Malme-3M = system: Malme-3M
MDA-MB-435 = system: MDA-MB-435
OVCAR-5 = system: OVCAR-5
OVCAR-8 = system: OVCAR-8
KM12 = system: KM12
T47D = system: T47D
U-251 = system: U-251
DU-145 = system: DU-145
RPMI-8226 = system: RPMI-8226
EKVX = system: EKVX
HL-60 = system: HL-60
A549 = system: A549
K562 = system: K562
SK-MEL-5 = system: SK-MEL-5
SK-OV-3 = system: SK-OV-3
OVCAR-4 = system: OVCAR-4
M14 = system: M14
SK-MEL-2 = system: SK-MEL-2
SNB-19 = system: SNB-19
SK-MEL-28 = system: SK-MEL-28
SNB-75 = system: SNB-75
SF-268 = system: SF-268
SN12C = system: SN12C
CAKI-1 = system: CAKI-1
UO-31 = system: UO-31
LOX IMVI = system: LOX IMVI
A498 = system: A498
MDA-N = system: MDA-N
TK-10 = system: TK-10
SF-539 = system: SF-539
SR = system: SR

O=C1c2ccccc2-c2ccc(/N=[N+](/[O-])c3ccc4c(c3)C(=O)c3ccccc3-4)cc21
GI50 (HCT-116): > 100 µM (inactive) | GI50 (RXF 393): > 100 µM (inactive) | GI50 (NCI-H522): > 100 µM (inactive) | GI50 (NCI-H23): > 100 µM (inactive) | GI50 (ACHN): > 100 µM (inactive) | GI50 (NCI/ADR-RES): > 100 µM (inactive) | GI50 (SW-620): > 100 µM (inactive) | GI50 (BT-549): > 100 µM (inactive) | GI50 (COLO 205): > 100 µM (inactive) | GI50 (NCI-H460): > 100 µM (inactive) | GI50 (UACC-62): > 100 µM (inactive) | GI50 (SF-295): > 100 µM (inactive) | GI50 (HOP-92): > 100 µM (inactive) | GI50 (PC-3): > 100 µM (inactive) | GI50 (HOP-62): 71.4 µM (inactive) | GI50 (786-0): > 100 µM (inactive) | GI50 (HT-29): > 100 µM (inactive) | GI50 (HCT-15): > 100 µM | GI50 (UACC-257): > 100 µM (inactive) | GI50 (HCC 2998): > 100 µM (inactive) | GI50 (CCRF-CEM): > 100 µM (inactive) | GI50 (MDA-MB-231): > 100 µM (inactive) | GI50 (NCI-H226): > 100 µM (inactive) | GI50 (MOLT-4): > 100 µM (inactive) | GI50 (OVCAR-3): > 100 µM (inactive) | GI50 (MCF7): > 100 µM (inactive) | GI50 (IGROV-1): > 100 µM (inactive) | GI50 (Hs-578T): > 100 µM (inactive) | GI50 (Malme-3M): > 100 µM (inactive) | GI50 (MDA-MB-435): > 100 µM (inactive) | GI50 (OVCAR-5): > 100 µM (inactive) | GI50 (OVCAR-8): > 100 µM (inactive) | GI50 (KM12): > 100 µM (inactive) | GI50 (T47D): > 100 µM (inactive) | GI50 (U-251): > 100 µM (inactive) | GI50 (DU-145): > 100 µM (inactive) | GI50 (RPMI-8226): > 100 µM (inactive) | GI50 (EKVX): > 100 µM (inactive) | GI50 (HL-60): > 100 µM (inactive) | GI50 (A549): > 100 µM (inactive) | GI50 (K562): > 100 µM (inactive) | GI50 (SK-MEL-5): > 100 µM (inactive) | GI50 (SK-OV-3): > 100 µM (inactive) | GI50 (OVCAR-4): > 100 µM (inactive) | GI50 (M14): > 100 µM (inactive) | GI50 (SK-MEL-2): > 100 µM (inactive) | GI50 (SNB-19): > 100 µM (inactive) | GI50 (SK-MEL-28): > 100 µM (inactive) | GI50 (SNB-75): > 100 µM (inactive) | GI50 (SF-268): > 100 µM (inactive) | GI50 (SN12C): > 100 µM (inactive) | GI50 (CAKI-1): > 100 µM (inactive) | GI50 (UO-31): > 100 µM (inactive) | GI50 (LOX IMVI): > 100 µM (inactive) | GI50 (A498): > 100 µM (inactive) | GI50 (MDA-N): > 100 µM (inactive) | GI50 (TK-10): > 100 µM (inactive)

N#Cc1sc2c(c1OC(=O)c1cccs1)c(=O)n(-c1ccccc1)c(=S)n2-c1ccccc1
GI50 (HCT-116): 15.2 µM (inactive) | GI50 (RXF 393): 14.9 µM (inactive) | GI50 (NCI-H522): 16.4 µM (inactive) | GI50 (NCI-H23): 25.3 µM (inactive) | GI50 (NCI/ADR-RES): 21.8 µM (inactive) | GI50 (SW-620): 21.8 µM (inactive) | GI50 (BT-549): 15.5 µM (inactive) | GI50 (COLO 205): 19.9 µM (inactive) | GI50 (NCI-H460): 28.2 µM (inactive) | GI50 (UACC-62): 17.2 µM (inactive) | GI50 (SF-295): 21 µM (inactive) | GI50 (PC-3): 18 µM (inactive) | GI50 (HOP-62): 19.6 µM (inactive) | GI50 (786-0): 31.4 µM (inactive) | GI50 (HT-29): 29.5 µM (inactive) | GI50 (HCT-15): 17.3 µM | GI50 (UACC-257): 32 µM (inactive) | GI50 (CCRF-CEM): > 10 µM (inactive) | GI50 (MDA-MB-231): 20.1 µM (inactive) | GI50 (NCI-H226): 19.5 µM (inactive) | GI50 (MOLT-4): 19.4 µM (inactive) | GI50 (OVCAR-3): 31.1 µM (inactive) | GI50 (MCF7): 21.5 µM (inactive) | GI50 (IGROV-1): 19.8 µM (inactive) | GI50 (Hs-578T): 15.2 µM (inactive) | GI50 (Malme-3M): 18.2 µM (inactive) | GI50 (MDA-MB-435): 29.9 µM (inactive) | GI50 (OVCAR-8): 25.9 µM (inactive) | GI50 (KM12): 18.9 µM (inactive) | GI50 (T47D): 10.9 µM (inactive) | GI50 (U-251): 20.2 µM (inactive) | GI50 (DU-145): 32.4 µM (inactive) | GI50 (RPMI-8226): 18.7 µM (inactive) | GI50 (EKVX): 33.2 µM (inactive) | GI50 (HL-60): 21.3 µM (inactive) | GI50 (A549): 31 µM (inactive) | GI50 (SF-539): 22.4 µM (inactive) | GI50 (K562): 22 µM (inactive) | GI50 (SK-MEL-5): 16 µM (inactive) | GI50 (SK-OV-3): 29.6 µM (inactive) | GI50 (OVCAR-4): 20.7 µM (inactive) | GI50 (SR): 25.6 µM (inactive) | GI50 (M14): 19.1 µM (inactive) | GI50 (SK-MEL-2): 21.1 µM (inactive) | GI50 (SNB-19): 26.5 µM (inactive) | GI50 (SK-MEL-28): 21.9 µM (inactive) | GI50 (SNB-75): 38.7 µM (inactive) | GI50 (SF-268): 30.1 µM (inactive) | GI50 (SN12C): 19.2 µM (inactive) | GI50 (CAKI-1): 32.4 µM (inactive) | GI50 (UO-31): 16.1 µM (inactive) | GI50 (LOX IMVI): 20.3 µM (inactive) | GI50 (MDA-N): 26.7 µM (inactive) | GI50 (TK-10): 31 µM (inactive)

COc1ccc(-c2c3c(nc4nc(SCC(=O)c5ccc(Br)cc5)nc(N)c24)CCCC3)cc1OC
GI50 (HCT-116): > 100 µM (inactive) | GI50 (RXF 393): 19.3 µM (inactive) | GI50 (NCI-H23): > 100 µM (inactive) | GI50 (ACHN): > 100 µM (inactive) | GI50 (NCI/ADR-RES): 74.5 µM (inactive) | GI50 (SW-620): 74.5 µM (inactive) | GI50 (BT-549): 80 µM (inactive) | GI50 (COLO 205): > 100 µM (inactive) | GI50 (NCI-H460): > 100 µM (inactive) | GI50 (UACC-62): > 100 µM (inactive) | GI50 (SF-295): > 100 µM (inactive) | GI50 (PC-3): > 100 µM (inactive) | GI50 (HOP-62): 58.6 µM (inactive) | GI50 (HT-29): 41.4 µM (inactive) | GI50 (HCT-15): > 100 µM | GI50 (UACC-257): > 100 µM (inactive) | GI50 (CCRF-CEM): > 100 µM (inactive) | GI50 (MDA-MB-231): 26.9 µM (inactive) | GI50 (MOLT-4): > 10 µM (inactive) | GI50 (OVCAR-3): > 100 µM (inactive) | GI50 (MCF7): > 100 µM (inactive) | GI50 (IGROV-1): > 100 µM (inactive) | GI50 (Hs-578T): 15.3 µM (inactive) | GI50 (Malme-3M): 42.6 µM (inactive) | GI50 (MDA-MB-435): > 100 µM (inactive) | GI50 (OVCAR-5): > 100 µM (inactive) | GI50 (OVCAR-8): 33.5 µM (inactive) | GI50 (KM12): > 100 µM (inactive) | GI50 (T47D): 73.6 µM (inactive) | GI50 (U-251): > 100 µM (inactive) | GI50 (DU-145): > 100 µM (inactive) | GI50 (RPMI-8226): 64.1 µM (inactive) | GI50 (EKVX): 84.1 µM (inactive) | GI50 (HL-60): 90.6 µM (inactive) | GI50 (A549): > 100 µM (inactive) | GI50 (SF-539): > 100 µM (inactive) | GI50 (K562): > 100 µM (inactive) | GI50 (SK-MEL-5): 10.1 µM (inactive) | GI50 (SK-OV-3): 30.5 µM (inactive) | GI50 (OVCAR-4): 33.7 µM (inactive) | GI50 (SR): > 100 µM (inactive) | GI50 (M14): 41.9 µM (inactive) | GI50 (SNB-19): > 100 µM (inactive) | GI50 (SK-MEL-28): 64 µM (inactive) | GI50 (SNB-75): 14.9 µM (inactive) | GI50 (SF-268): 71.9 µM (inactive) | GI50 (SN12C): > 100 µM (inactive) | GI50 (CAKI-1): 79.6 µM (inactive) | GI50 (UO-31): > 100 µM (inactive) | GI50 (LOX IMVI): > 100 µM (inactive) | GI50 (MDA-N): > 100 µM (inactive) | GI50 (TK-10): > 100 µM (inactive)
